These results are taken from PubChem BioAssay (NCI).

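A five-concentration, 48-hour dose response in 96-well plates underlies each endpoint, interpolated linearly between surrounding concentrations. GI50 is the concentration that inhibits growth by half. At the TGI there is no net growth.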

Some test systems named below: LOX IMVI melanoma; HS 578T breast; MOLT-4 leukemia; OVCAR-5 ovarian; RPMI-8226 leukemia; CCRF-CEM leukemia; SN12C renal.
Experiment in all cases: NCI anticancer screen, dose series, 48 h

`COC(=O)/C=C1/OC(c2ccc(OC)cc2)=C(Cl)C1=O`: the TGI in the experiment with LOX IMVI melanoma is 21.2 µM; in the experiment on HS 578T breast, 84 µM; with MOLT-4 leukemia, 12.3 µM; with OVCAR-5 ovarian it was 31.6 µM; in the experiment on RPMI-8226 leukemia it was 13.6 µM; in the experiment on CCRF-CEM leukemia, 17.7 µM. The molecule further showed a TGI in the experiment on SN12C renal of 40.4 µM.
For the molecule `O=C1CC(NCc2ccccc2)c2c(Cl)sc(Cl)c21` (stereo not drawn), the TGI in the experiment with LOX IMVI melanoma was 18.5 µM; in the experiment with HS 578T breast, above 82.5 µM; in the experiment on MOLT-4 leukemia it was 43.2 µM; in the experiment on OVCAR-5 ovarian, above 100 µM; in the experiment with RPMI-8226 leukemia it was 6.82 µM; with CCRF-CEM leukemia, 9.44 µM. For the same molecule, in the experiment on SN12C renal, the TGI is 58 µM.
`COc1ccc(/C=C2\C[C@H]3[C@@H]4CCC5=CC(=O)CC[C@]5(C)[C@H]4CC[C@]3(C)C2=O)cc1OC`: the TGI was above 100 µM with LOX IMVI melanoma; above 100 µM with HS 578T breast; 44.6 µM with MOLT-4 leukemia; above 100 µM in the experiment on OVCAR-5 ovarian; 47.3 µM with RPMI-8226 leukemia; 47.2 µM with CCRF-CEM leukemia. In the experiment with SN12C renal, this molecule returned a TGI above 100 µM.
As to `Cc1nc2sccn2c1/C=C1/C(=O)Nc2cccc(Cl)c21`, the TGI with LOX IMVI melanoma, with HS 578T breast, with MOLT-4 leukemia, with OVCAR-5 ovarian, in the experiment with RPMI-8226 leukemia and in the experiment on CCRF-CEM leukemia was above 100 µM throughout. This molecule gave a TGI with SN12C renal above 100 µM.
For the molecule `CCOc1cc2c(c(OCC)c1O)CC[C@@H]1[C@@H]2CC[C@]2(C)[C@@H](O)CC[C@@H]12`, the TGI in the experiment with LOX IMVI melanoma is 17.1 µM; with HS 578T breast, 95.1 µM; in the experiment with MOLT-4 leukemia, above 100 µM; with OVCAR-5 ovarian, above 100 µM; in the experiment with RPMI-8226 leukemia, 31.1 µM; in the experiment on CCRF-CEM leukemia, above 100 µM. Besides, the TGI in the experiment with SN12C renal was 21.9 µM. For the same molecule, the GI50 in the experiment with SN12C renal was 4.84 µM.
On to `COC(=O)CCC(NC(=O)OC(C)(C)C)C(=O)NC(Cc1ccc(NC(=O)CCCC(C)=O)cc1)C(=O)NC(CCC(=O)OC)C(=O)OC` (stereo not drawn), for which the TGI in the experiment with LOX IMVI melanoma, in the experiment on HS 578T breast, with MOLT-4 leukemia, in the experiment with OVCAR-5 ovarian, with RPMI-8226 leukemia and in the experiment with CCRF-CEM leukemia was above 100 µM throughout. The TGI in the experiment with SN12C renal is above 100 µM.
`CC(=O)OC(Cc1c(O)c2c(C)cccc2oc1=O)C(C)(C)O` (stereo not drawn): the TGI in the experiment on LOX IMVI melanoma, in the experiment on HS 578T breast, in the experiment on MOLT-4 leukemia, in the experiment on OVCAR-5 ovarian, in the experiment with RPMI-8226 leukemia and in the experiment with CCRF-CEM leukemia was above 100 µM each time. In the experiment on SN12C renal, this molecule gave a TGI above 100 µM.
As to `CNC1(C(=O)O)CC1`, the TGI in the experiment on LOX IMVI melanoma, in the experiment with HS 578T breast, in the experiment with MOLT-4 leukemia, with OVCAR-5 ovarian, with RPMI-8226 leukemia and in the experiment on CCRF-CEM leukemia was above 100 µM throughout. Moreover, in the experiment on SN12C renal, the TGI was above 100 µM.
Turning to `CNc1nc(C(N)=O)c(N)s1`, the TGI in the experiment with LOX IMVI melanoma, in the experiment on HS 578T breast, with MOLT-4 leukemia, in the experiment with OVCAR-5 ovarian, in the experiment with RPMI-8226 leukemia and in the experiment on CCRF-CEM leukemia was above 100 µM in each case. Further, in the experiment on SN12C renal, the TGI was above 100 µM.
Regarding `O=C(c1ccc(Cl)cc1)N(C(=S)OCCOc1ccccc1)c1ccccc1`, the TGI in the experiment on LOX IMVI melanoma is 36.1 µM; with HS 578T breast, above 100 µM; in the experiment on MOLT-4 leukemia it was 59.8 µM; in the experiment on OVCAR-5 ovarian, 36.4 µM; with RPMI-8226 leukemia, 44.1 µM; in the experiment on CCRF-CEM leukemia it was 42.7 µM. Moreover, the TGI in the experiment with SN12C renal turned out to be 39.3 µM.
Regarding `CCCCCCCCCCCCCCCCCCOCC(O)COP(=O)(O)OCC1OC(n2ccc(N)nc2=O)C(O)C1O` (stereo not drawn), the TGI in the experiment on LOX IMVI melanoma is 31.1 µM; in the experiment with HS 578T breast, above 100 µM; in the experiment on MOLT-4 leukemia, 20 µM; in the experiment on OVCAR-5 ovarian, above 100 µM; with RPMI-8226 leukemia it was 52.9 µM; with CCRF-CEM leukemia, 18.6 µM. For the same molecule, the TGI in the experiment on SN12C renal was above 100 µM.
Turning to `CCOC(=O)NN(C(=O)OCC)c1c(C)cc(C)cc1C`, the TGI in the experiment on LOX IMVI melanoma, in the experiment with HS 578T breast, in the experiment with MOLT-4 leukemia, in the experiment on OVCAR-5 ovarian, in the experiment on RPMI-8226 leukemia and in the experiment on CCRF-CEM leukemia was above 100 µM in each case. In the experiment with SN12C renal, the TGI is above 100 µM.
For the molecule `O=C(N/N=C/c1ccccc1)c1cccc2nc3ccccc3nc12`, the TGI in the experiment with LOX IMVI melanoma was above 100 µM; in the experiment with HS 578T breast, above 72.9 µM; in the experiment on MOLT-4 leukemia, above 100 µM; in the experiment with OVCAR-5 ovarian, above 100 µM; in the experiment on RPMI-8226 leukemia it was above 100 µM; in the experiment on CCRF-CEM leukemia, above 100 µM. Further, in the experiment on SN12C renal, the TGI is above 100 µM.
For `c1ccc2c(c1)OC(N1CCCC1)c1cnc(N3CCOCC3)nc1-2` (stereo not drawn), the TGI is above 100 µM with LOX IMVI melanoma; above 100 µM in the experiment on HS 578T breast; above 100 µM in the experiment on MOLT-4 leukemia; 79.1 µM with OVCAR-5 ovarian; 74.7 µM in the experiment on RPMI-8226 leukemia; above 100 µM in the experiment with CCRF-CEM leukemia. The same molecule displayed a TGI with SN12C renal above 100 µM.
On to `CC(C)Oc1c(-c2ccc(F)cc2)c(O)c2c3c1oc(=O)n3C=CC2C` (stereo not drawn), for which the TGI was 28.2 µM in the experiment with LOX IMVI melanoma; 52.8 µM with HS 578T breast; 39.2 µM in the experiment on MOLT-4 leukemia; 62.2 µM in the experiment with OVCAR-5 ovarian; 34.7 µM in the experiment with RPMI-8226 leukemia; 29.8 µM in the experiment with CCRF-CEM leukemia. This molecule gave a TGI with SN12C renal of 23.8 µM.
Regarding `Cc1ccc(Nc2nc3c(=O)n(C)c(=O)n(C)c3nc2Nc2ccc(C)cc2)cc1`, the TGI with LOX IMVI melanoma is 22.6 µM; in the experiment with HS 578T breast it was 79.6 µM; in the experiment on MOLT-4 leukemia, above 100 µM; in the experiment on OVCAR-5 ovarian it was 31.2 µM; in the experiment with RPMI-8226 leukemia, above 100 µM; in the experiment with CCRF-CEM leukemia, above 100 µM. The TGI in the experiment with SN12C renal is 30.5 µM.
Consider `C=C1C[C@H](O)[C@H](Br)C(C)(C)C12CCC(C)(Cl)C(Br)C2` (stereo partly drawn), for which the TGI with LOX IMVI melanoma is 20.1 µM; in the experiment on HS 578T breast it was 23.6 µM; with MOLT-4 leukemia it was 75 µM; in the experiment with OVCAR-5 ovarian, 4.25 µM; in the experiment with RPMI-8226 leukemia, 3.76 µM; with CCRF-CEM leukemia, 75 µM. The same molecule displayed a TGI in the experiment with SN12C renal of 14.8 µM.
For `CCOC(=O)C(Cl)(NC(=O)OCc1ccccc1)C(F)(F)F` (stereo not drawn), the TGI in the experiment with LOX IMVI melanoma, with HS 578T breast, in the experiment with MOLT-4 leukemia, with OVCAR-5 ovarian, in the experiment with RPMI-8226 leukemia and in the experiment with CCRF-CEM leukemia was above 100 µM throughout. In addition, the TGI with SN12C renal was above 100 µM.
As for `COc1cccc(/C=C2\S/C(=N/Nc3nc(-c4ccc([N+](=O)[O-])cc4)cs3)NC2=O)c1O`, the TGI with LOX IMVI melanoma is 17.1 µM; with HS 578T breast, 74.1 µM; with MOLT-4 leukemia, above 100 µM; in the experiment with OVCAR-5 ovarian it was 54.7 µM; in the experiment on RPMI-8226 leukemia, 35.2 µM; with CCRF-CEM leukemia, 63.3 µM. In the experiment with SN12C renal, the TGI is 50.5 µM.
On to `COc1ccccc1C1c2cc3c(cc2OC(N2CCOCC2)C1C)OCO3` (stereo not drawn), for which the TGI with LOX IMVI melanoma stood at 35.2 µM; with HS 578T breast it was 39 µM; with MOLT-4 leukemia it was 48.7 µM; in the experiment on OVCAR-5 ovarian, 41.1 µM; in the experiment on RPMI-8226 leukemia, 45.7 µM; with CCRF-CEM leukemia, 34.7 µM. Also, the TGI in the experiment with SN12C renal amounted to 38.1 µM.
In the case of `CC(=O)N(C(C)=O)c1cc2c3c(c1)CCCN3CCC2`, the TGI with LOX IMVI melanoma, with HS 578T breast, with MOLT-4 leukemia, in the experiment with OVCAR-5 ovarian, with RPMI-8226 leukemia and with CCRF-CEM leukemia was above 10 µM in each case. In the experiment with SN12C renal, the TGI was above 10 µM.
`Cc1[nH]c(=O)nc(NNCc2ccc(Cl)cc2)c1C(=O)Nc1ccc(Cl)cc1`: the TGI with LOX IMVI melanoma, in the experiment on HS 578T breast, in the experiment with MOLT-4 leukemia, in the experiment on OVCAR-5 ovarian, in the experiment on RPMI-8226 leukemia and in the experiment on CCRF-CEM leukemia was above 100 µM throughout. In the experiment on SN12C renal, this molecule registered a TGI above 100 µM.
`CCOC(=O)/C=C(/C)Nc1nc2c(c(C(=O)OC)c1C#N)CCCC2`: the TGI in the experiment with LOX IMVI melanoma, with HS 578T breast, with MOLT-4 leukemia, in the experiment with OVCAR-5 ovarian, with RPMI-8226 leukemia and with CCRF-CEM leukemia was above 100 µM each time. Besides, the TGI in the experiment on SN12C renal was above 100 µM.
In the case of `CC1(C)N=C(C2CCCN2C(=O)OCc2ccccc2)OC1=O` (stereo not drawn), the TGI in the experiment with LOX IMVI melanoma, in the experiment on HS 578T breast, in the experiment on MOLT-4 leukemia, in the experiment on OVCAR-5 ovarian, in the experiment with RPMI-8226 leukemia and with CCRF-CEM leukemia was above 100 µM in each case. In addition, the TGI with SN12C renal is above 100 µM.
Consider `CC1C(C#N)(C#N)C(C#N)=C(N)C1(Cl)[N+](=O)[O-]` (stereo not drawn), for which the TGI in the experiment on LOX IMVI melanoma was determined as 18.8 µM; in the experiment on HS 578T breast, 46.1 µM; in the experiment with MOLT-4 leukemia, 11.6 µM; in the experiment on OVCAR-5 ovarian, 29.6 µM; in the experiment on RPMI-8226 leukemia, 39.8 µM; in the experiment on CCRF-CEM leukemia, 5.12 µM. The molecule further returned a TGI with SN12C renal of 20.9 µM.
In the case of `O=C(c1ccccc1)N1C(=S)N(c2ccccn2)C(=Nc2ccccc2)C1=Nc1ccccc1`, the TGI in the experiment on LOX IMVI melanoma is above 48.9 µM; in the experiment with HS 578T breast it was above 61.8 µM; with MOLT-4 leukemia it was above 54.8 µM; in the experiment with OVCAR-5 ovarian it was above 44.3 µM; with RPMI-8226 leukemia, 31.1 µM; in the experiment with CCRF-CEM leukemia, above 24.7 µM. This molecule registered a TGI with SN12C renal above 100 µM.
